# Experimental data reported in PubChem BioAssay AID1745844 (Carcinogenic Potency Database (CPDB), 2022).
# Test system: rodent lifetime carcinogenesis bioassay, tumor incidence TD50
# Test: carcinogenic potency in animals, long-term in vivo studies, CPDB compilation (AID 1745844)
# Settings: mouse, strain B6C3F1, males, inhaled
smiles,measurement,setting,value
C=CC=C,TD50,"site: Harderian gland, lesion: adenocarcinoma + adenocarcinoma, bilateral, dosed 52 weeks, study length 104 weeks",88.9 mg/kg/day
same,TD50,"site: Harderian gland, lesion: adenocarcinoma + adenoma + adenocarcinoma, bilateral + adenoma, bilateral, dosed 13 weeks, study length 104 weeks",11.7 mg/kg/day
same,TD50,"site: Harderian gland, lesion: adenocarcinoma + adenoma + adenocarcinoma, bilateral + adenoma, bilateral, dosed 26 weeks, study length 104 weeks",22.7 mg/kg/day
same,TD50,"site: Harderian gland, lesion: adenocarcinoma + adenoma + adenocarcinoma, bilateral + adenoma, bilateral, dosed 52 weeks, study length 104 weeks",13.1 mg/kg/day
same,TD50,"site: Harderian gland, lesion: adenocarcinoma + adenoma + adenoma, bilateral, dosed 40 weeks, study length 104 weeks",17.5 mg/kg/day
same,TD50,"site: Harderian gland, lesion: adenocarcinoma + adenoma + adenoma, bilateral, dosed 82 weeks, study length 104 weeks",26.1 mg/kg/day
same,TD50,"site: Harderian gland, lesion: adenocarcinoma, dosed 40 weeks, study length 104 weeks",531 mg/kg/day
same,TD50,"site: Harderian gland, lesion: adenocarcinoma, dosed 82 weeks, study length 104 weeks",221 mg/kg/day
same,TD50,"site: Harderian gland, lesion: adenoma + adenoma, bilateral, dosed 13 weeks, study length 104 weeks",14.9 mg/kg/day
same,TD50,"site: Harderian gland, lesion: adenoma + adenoma, bilateral, dosed 26 weeks, study length 104 weeks",22.7 mg/kg/day
same,TD50,"site: Harderian gland, lesion: adenoma + adenoma, bilateral, dosed 40 weeks, study length 104 weeks",18 mg/kg/day
same,TD50,"site: Harderian gland, lesion: adenoma + adenoma, bilateral, dosed 52 weeks, study length 104 weeks",14.9 mg/kg/day
same,TD50,"site: Harderian gland, lesion: adenoma + adenoma, bilateral, dosed 82 weeks, study length 104 weeks",27.6 mg/kg/day
same,TD50,"site: Zymbal's gland, lesion: adenoma + carcinoma, dosed 13 weeks, study length 104 weeks",223 mg/kg/day
same,TD50,"site: Zymbal's gland, lesion: adenoma + carcinoma, dosed 26 weeks, study length 104 weeks",135 mg/kg/day
same,TD50,"site: Zymbal's gland, lesion: adenoma + carcinoma, dosed 40 weeks, study length 104 weeks",647 mg/kg/day
same,TD50,"site: Zymbal's gland, lesion: carcinoma, dosed 13 weeks, study length 104 weeks",336 mg/kg/day
same,TD50,"site: Zymbal's gland, lesion: carcinoma, dosed 26 weeks, study length 104 weeks",135 mg/kg/day
same,TD50,"site: Zymbal's gland, lesion: carcinoma, dosed 40 weeks, study length 104 weeks",625 mg/kg/day
same,TD50,"site: all sites + brain + forestomach + Harderian gland + heart + kidney + liver + lung + preputial gland, lesion: histiocytic sarcoma + malignant lymphoma, mixed type + malignant lymphoma, lymphocytic type + malignant lymphoma + olfactory lob, dosed 13 weeks, study length 104 weeks",7 mg/kg/day
same,TD50,"site: all sites + brain + forestomach + Harderian gland + heart + kidney + liver + lung + preputial gland, lesion: histiocytic sarcoma + malignant lymphoma, mixed type + malignant lymphoma, lymphocytic type + malignant lymphoma + olfactory lob, dosed 26 weeks, study length 104 weeks",12.6 mg/kg/day
same,TD50,"site: all sites + forestomach + Harderian gland + heart + kidney + liver + lung + preputial gland, lesion: histiocytic sarcoma + malignant lymphoma, histiocytic type + malignant lymphoma, mixed type + malignant lymphoma, lymphocytic, dosed 82 weeks, study length 104 weeks",10.7 mg/kg/day
same,TD50,"site: all sites + forestomach + Harderian gland + heart + kidney + liver + lung + preputial gland, lesion: histiocytic sarcoma + malignant lymphoma, mixed type + malignant lymphoma, lymphocytic type + malignant lymphoma + squamous-cell, dosed 40 weeks, study length 104 weeks",10.9 mg/kg/day
same,TD50,"site: all sites + forestomach + Harderian gland + heart + kidney + liver + lung + preputial gland, lesion: histiocytic sarcoma + malignant lymphoma, mixed type + malignant lymphoma, lymphocytic type + malignant lymphoma + squamous-cell, dosed 52 weeks, study length 104 weeks",6.12 mg/kg/day
same,TD50,"site: all sites + forestomach + heart + lung, lesion: malignant lymphoma, NOS + papilloma, NOS + squamous-cell papilloma + hemangiosarcoma + alveolar/bronchiolar adenoma + alveolar/bro, dosed 60 weeks, study length 60 weeks",28.8 mg/kg/day
same,TD50,"site: all sites, lesion: hemangioma + hemangiosarcoma, dosed 13 weeks, study length 104 weeks",16.9 mg/kg/day
same,TD50,"site: all sites, lesion: hemangioma + hemangiosarcoma, dosed 26 weeks, study length 104 weeks",17.7 mg/kg/day
same,TD50,"site: all sites, lesion: hemangioma + hemangiosarcoma, dosed 40 weeks, study length 104 weeks",17.3 mg/kg/day
same,TD50,"site: all sites, lesion: hemangioma + hemangiosarcoma, dosed 52 weeks, study length 104 weeks",11.1 mg/kg/day
same,TD50,"site: all sites, lesion: hemangioma + hemangiosarcoma, dosed 82 weeks, study length 104 weeks",38 mg/kg/day
same,TD50,"site: all sites, lesion: hemangioma, dosed 13 weeks, study length 104 weeks",45.8 mg/kg/day
same,TD50,"site: all sites, lesion: hemangioma, dosed 40 weeks, study length 104 weeks",95.2 mg/kg/day
same,TD50,"site: all sites, lesion: hemangiosarcoma, dosed 13 weeks, study length 104 weeks",21.9 mg/kg/day
same,TD50,"site: all sites, lesion: hemangiosarcoma, dosed 26 weeks, study length 104 weeks",17.7 mg/kg/day
same,TD50,"site: all sites, lesion: hemangiosarcoma, dosed 40 weeks, study length 104 weeks",20.8 mg/kg/day
same,TD50,"site: all sites, lesion: hemangiosarcoma, dosed 52 weeks, study length 104 weeks",11.9 mg/kg/day
same,TD50,"site: all sites, lesion: hemangiosarcoma, dosed 82 weeks, study length 104 weeks",45.5 mg/kg/day
same,TD50,"site: all sites, lesion: histiocytic sarcoma + malignant lymphoma, histiocytic type + malignant lymphoma, mixed type + malignant lymphoma, lymphocytic, dosed 82 weeks, study length 104 weeks",63.5 mg/kg/day
same,TD50,"site: all sites, lesion: histiocytic sarcoma + malignant lymphoma, mixed type + malignant lymphoma, lymphocytic type + malignant lymphoma, dosed 13 weeks, study length 104 weeks",26.2 mg/kg/day
same,TD50,"site: all sites, lesion: histiocytic sarcoma + malignant lymphoma, mixed type + malignant lymphoma, lymphocytic type + malignant lymphoma, dosed 26 weeks, study length 104 weeks",28.8 mg/kg/day
same,TD50,"site: all sites, lesion: histiocytic sarcoma + malignant lymphoma, mixed type + malignant lymphoma, lymphocytic type + malignant lymphoma, dosed 40 weeks, study length 104 weeks",57.1 mg/kg/day
same,TD50,"site: all sites, lesion: histiocytic sarcoma + malignant lymphoma, mixed type + malignant lymphoma, lymphocytic type + malignant lymphoma, dosed 52 weeks, study length 104 weeks",27.6 mg/kg/day
same,TD50,"site: all sites, lesion: histiocytic sarcoma, dosed 13 weeks, study length 104 weeks",91.1 mg/kg/day
same,TD50,"site: all sites, lesion: histiocytic sarcoma, dosed 26 weeks, study length 104 weeks",396 mg/kg/day
same,TD50,"site: all sites, lesion: histiocytic sarcoma, dosed 40 weeks, study length 104 weeks",128 mg/kg/day
same,TD50,"site: all sites, lesion: histiocytic sarcoma, dosed 52 weeks, study length 104 weeks",110 mg/kg/day
same,TD50,"site: all sites, lesion: histiocytic sarcoma, dosed 82 weeks, study length 104 weeks",157 mg/kg/day
same,TD50,"site: all sites, lesion: malignant lymphoma, NOS, dosed 60 weeks, study length 60 weeks",105 mg/kg/day
same,TD50,"site: all sites, lesion: malignant lymphoma, histiocytic type + malignant lymphoma, mixed type + malignant lymphoma, lymphocytic type + malignant lymph, dosed 82 weeks, study length 104 weeks",99.8 mg/kg/day
same,TD50,"site: all sites, lesion: malignant lymphoma, lymphocytic type, dosed 13 weeks, study length 104 weeks",66.8 mg/kg/day
same,TD50,"site: all sites, lesion: malignant lymphoma, lymphocytic type, dosed 26 weeks, study length 104 weeks",46 mg/kg/day
same,TD50,"site: all sites, lesion: malignant lymphoma, lymphocytic type, dosed 40 weeks, study length 104 weeks",142 mg/kg/day
same,TD50,"site: all sites, lesion: malignant lymphoma, lymphocytic type, dosed 52 weeks, study length 104 weeks",129 mg/kg/day
same,TD50,"site: all sites, lesion: malignant lymphoma, lymphocytic type, dosed 82 weeks, study length 104 weeks",157 mg/kg/day
same,TD50,"site: all sites, lesion: malignant lymphoma, mixed type + malignant lymphoma, lymphocytic type + malignant lymphoma, dosed 13 weeks, study length 104 weeks",34.9 mg/kg/day
